In patent US20230321012A1 (priority 2021, published 2023):

Assay: clinical
Settings: for Cmax / Tmax / AUC(0-t): human
Procedure: Clinical Trial Outline. […] All solid tumor types are eligible for the trial. […] An expansion cohort was included at the RP2D level to confirm safety and tolerability of the combination. […] In Part 2, patients were treated by giving both agents twice daily (BID dosing schedule).
Plasma samples were analyzed for AMXT 1501 concentration via a LC/MS^2 procedure (MI-0028-DB-AB; Agilux Laboratories, Worcester, Massachusetts), and the resulting concentration versus time data were used to estimate individual PK parameters using noncompartmental analysis (NCA).

[1] = Part 1 Cohort 1, 80 mg QD, Cycle 1 Day 1
[2] = Part 1 Cohort 1, 80 mg QD, Cycle 1 Day 14
[3] = Part 1 Cohort 1, 80 mg QD, Cycle 1 Day 28, +DFMO 500 mg/day
[4] = Part 1 Cohort 2, 160 mg QD, Cycle 1 Day 1
[5] = Part 1 Cohort 2, 160 mg QD, Cycle 1 Day 14
[6] = Part 1 Cohort 2, 160 mg QD, Cycle 1 Day 28, +DFMO 500 mg/day
[7] = Part 1 Cohort 3, 400 mg QD, Cycle 1 Day 14
[8] = Part 1 Cohort 3, 400 mg QD, Cycle 1 Day 28, +DFMO 500 mg/day
[9] = Part 1 Cohort 3, 400 mg QD, Day 1
[10] = Part 1 Cohort 4, 1200 mg QD, Cycle 1 Day 1
[11] = Part 1 Cohort 4, 1200 mg QD, Cycle 1 Day 14
[12] = Part 1 Cohort 5, 1800 mg QD, Cycle 1 Day 1
[13] = Part 1 Cohort 5, 1800 mg QD, Cycle 1 Day 14
[14] = Part 1 Cohort 5, 1800 mg QD, Cycle 1 Day 28, +DFMO 500 mg/day
[15] = Part 1 Cohort 5, 1800 mg QD, Cycle 2 Day 14, n=1

CCCCCCCCCCCCCCCC(=O)NCCCC[C@@H](N)C(=O)NCCCNCCCCNCCCN [AMXT 1501, D-lys(palmitoyl)-spermine]
Cohort 5 patient AUC versus mouse plasma AUC at efficacious dose (Cohort 5 patients vs 2.5 mg/kg SC in 4T1 mice): 1.72 times | Tlast Mean [1]: 13.2 h | Tlast Median [1]: 6 h | Tlast Mean [2]: 12 h | Tlast Median [2]: 6 h | Tlast Mean [3]: 18 h | Tlast Median [3]: 24 h | Tlast Mean [4]: 15 h | Tlast Median [4]: 15 h | Tlast Mean [5]: 15 h | Tlast Median [5]: 15 h | Tlast Mean [6]: 10.5 h | Tlast Median [6]: 6 h | Tlast Mean [7]: 19.5 h | Tlast Median [7]: 24 h | Tlast Mean [8]: 24 h | Tlast Median [8]: 24 h | Tlast Mean [9]: 25.5 h | Tlast Median [9]: 24 h | Tlast Mean [10]: 40 h | Tlast Median [10]: 24 h | Tlast Mean [11]: 24 h | Tlast Median [11]: 24 h | Tlast Mean [12]: 54 h | Tlast Median [12]: 60 h | Tlast Mean [13]: 24 h | Tlast Median [13]: 24 h | Tlast Mean [14]: 24 h | Tlast Median [14]: 24 h | Tlast Mean [15]: 24 h | Tlast Median [15]: 24 h | sustained plasma level versus predicted efficacious concentration (100 nM, 57 ng/mL) (adult patients, 1,200 mg or 800 mg per day, split BID): above this predicted efficacious concentration value | Cmax (in vivo, 160 mg, Cmax Mean, Part 1 Cohort 2, 160 mg QD, Cycle 1 Day 1): 19.5 ng/mL | Tmax (in vivo, 1800 mg, Tmax Mean, Part 1 Cohort 5, 1800 mg QD, Cycle 1 Day 1): 10.5 h | AUC(0-t) (plasma, oral, 80 mg, AUC0-6 hr Mean, Part 1 Cohort 1, 80 mg QD, Cycle 1 Day 1): 29.6 ng·h/mL | AUC(0-t) (plasma, oral, 80 mg, AUC0-6 hr Mean, Part 1 Cohort 1, 80 mg QD, Cycle 1 Day 14): 91 ng·h/mL | AUC(0-t) (plasma, oral, 80 mg, AUC0-6 hr Median, Part 1 Cohort 1, 80 mg QD, Cycle 1 Day 1): 29.9 ng·h/mL | AUC(0-t) (plasma, oral, 80 mg, AUC0-6 hr Median, Part 1 Cohort 1, 80 mg QD, Cycle 1 Day 14): 51.3 ng·h/mL | AUC(0-t) (plasma, oral, 80 mg, AUC0-t Mean, Part 1 Cohort 1, 80 mg QD, Cycle 1 Day 1): 92 ng·h/mL | AUC(0-t) (plasma, oral, 80 mg, AUC0-t Mean, Part 1 Cohort 1, 80 mg QD, Cycle 1 Day 14): 262 ng·h/mL | AUC(0-t) (plasma, oral, 80 mg, AUC0-t Median, Part 1 Cohort 1, 80 mg QD, Cycle 1 Day 1): 45.3 ng·h/mL | AUC(0-t) (plasma, oral, 80 mg, AUC0-t Median, Part 1 Cohort 1, 80 mg QD, Cycle 1 Day 14): 51.3 ng·h/mL | Cmax (plasma, oral, 80 mg, Cmax Mean, Part 1 Cohort 1, 80 mg QD, Cycle 1 Day 1): 11.7 ng/mL | Cmax (plasma, oral, 80 mg, Cmax Mean, Part 1 Cohort 1, 80 mg QD, Cycle 1 Day 14): 26.2 ng/mL | Cmax (plasma, oral, 80 mg, Cmax Median, Part 1 Cohort 1, 80 mg QD, Cycle 1 Day 1): 10.6 ng/mL | Cmax (plasma, oral, 80 mg, Cmax Median, Part 1 Cohort 1, 80 mg QD, Cycle 1 Day 14): 13.8 ng/mL | Tmax (plasma, oral, 80 mg, Tmax Mean, Part 1 Cohort 1, 80 mg QD, Cycle 1 Day 1): 4.8 h | Tmax (plasma, oral, 80 mg, Tmax Mean, Part 1 Cohort 1, 80 mg QD, Cycle 1 Day 14): 4.67 h | Tmax (plasma, oral, 80 mg, Tmax Median, Part 1 Cohort 1, 80 mg QD, Cycle 1 Day 1): 4 h | Tmax (plasma, oral, 80 mg, Tmax Median, Part 1 Cohort 1, 80 mg QD, Cycle 1 Day 14): 4 h | AUC(0-t) (plasma, oral, 160 mg, AUC0-6 hr Mean, Part 1 Cohort 2, 160 mg QD, Cycle 1 Day 1): 74.8 ng·h/mL | AUC(0-t) (plasma, oral, 160 mg, AUC0-6 hr Mean, Part 1 Cohort 2, 160 mg QD, Cycle 1 Day 14): 43.4 ng·h/mL | AUC(0-t) (plasma, oral, 160 mg, AUC0-6 hr Median, Part 1 Cohort 2, 160 mg QD, Cycle 1 Day 1): 67.1 ng·h/mL | AUC(0-t) (plasma, oral, 160 mg, AUC0-6 hr Median, Part 1 Cohort 2, 160 mg QD, Cycle 1 Day 14): 49.8 ng·h/mL | AUC(0-t) (plasma, oral, 160 mg, AUC0-t Mean, Part 1 Cohort 2, 160 mg QD, Cycle 1 Day 1): 169 ng·h/mL | AUC(0-t) (plasma, oral, 160 mg, AUC0-t Mean, Part 1 Cohort 2, 160 mg QD, Cycle 1 Day 14): 105 ng·h/mL | AUC(0-t) (plasma, oral, 160 mg, AUC0-t Median, Part 1 Cohort 2, 160 mg QD, Cycle 1 Day 1): 130 ng·h/mL | AUC(0-t) (plasma, oral, 160 mg, AUC0-t Median, Part 1 Cohort 2, 160 mg QD, Cycle 1 Day 14): 59.7 ng·h/mL | Cmax (plasma, oral, 160 mg, Cmax Mean, Part 1 Cohort 2, 160 mg QD, Cycle 1 Day 14): 14.1 ng/mL | Cmax (plasma, oral, 160 mg, Cmax Median, Part 1 Cohort 2, 160 mg QD, Cycle 1 Day 1): 17.8 ng/mL | Cmax (plasma, oral, 160 mg, Cmax Median, Part 1 Cohort 2, 160 mg QD, Cycle 1 Day 14): 16.2 ng/mL | Tmax (plasma, oral, 160 mg, Tmax Mean, Part 1 Cohort 2, 160 mg QD, Cycle 1 Day 1): 4 h | Tmax (plasma, oral, 160 mg, Tmax Mean, Part 1 Cohort 2, 160 mg QD, Cycle 1 Day 14): 5 h | Tmax (plasma, oral, 160 mg, Tmax Median, Part 1 Cohort 2, 160 mg QD, Cycle 1 Day 1): 4 h | Tmax (plasma, oral, 160 mg, Tmax Median, Part 1 Cohort 2, 160 mg QD, Cycle 1 Day 14): 5 h | AUC(0-t) (plasma, oral, 400 mg, AUC0-6 hr Mean, Part 1 Cohort 3, 400 mg QD, Cycle 1 Day 14): 289 ng·h/mL | AUC(0-t) (plasma, oral, 400 mg, AUC0-6 hr Mean, Part 1 Cohort 3, 400 mg QD, Day 1): 183 ng·h/mL | AUC(0-t) (plasma, oral, 400 mg, AUC0-6 hr Median, Part 1 Cohort 3, 400 mg QD, Cycle 1 Day 14): 304 ng·h/mL | AUC(0-t) (plasma, oral, 400 mg, AUC0-6 hr Median, Part 1 Cohort 3, 400 mg QD, Day 1): 207 ng·h/mL | AUC(0-t) (plasma, oral, 400 mg, AUC0-t Mean, Part 1 Cohort 3, 400 mg QD, Cycle 1 Day 14): 957 ng·h/mL | AUC(0-t) (plasma, oral, 400 mg, AUC0-t Mean, Part 1 Cohort 3, 400 mg QD, Day 1): 714 ng·h/mL | AUC(0-t) (plasma, oral, 400 mg, AUC0-t Median, Part 1 Cohort 3, 400 mg QD, Cycle 1 Day 14): 1100 ng·h/mL | AUC(0-t) (plasma, oral, 400 mg, AUC0-t Median, Part 1 Cohort 3, 400 mg QD, Day 1): 906 ng·h/mL | Cmax (plasma, oral, 400 mg, Cmax Mean, Part 1 Cohort 3, 400 mg QD, Cycle 1 Day 14): 66.4 ng/mL | Cmax (plasma, oral, 400 mg, Cmax Mean, Part 1 Cohort 3, 400 mg QD, Day 1): 47 ng/mL | Cmax (plasma, oral, 400 mg, Cmax Median, Part 1 Cohort 3, 400 mg QD, Cycle 1 Day 14): 73.5 ng/mL | Cmax (plasma, oral, 400 mg, Cmax Median, Part 1 Cohort 3, 400 mg QD, Day 1): 52.5 ng/mL | Tmax (plasma, oral, 400 mg, Tmax Mean, Part 1 Cohort 3, 400 mg QD, Cycle 1 Day 14): 5 h | Tmax (plasma, oral, 400 mg, Tmax Mean, Part 1 Cohort 3, 400 mg QD, Day 1): 5 h | Tmax (plasma, oral, 400 mg, Tmax Median, Part 1 Cohort 3, 400 mg QD, Cycle 1 Day 14): 5 h | Tmax (plasma, oral, 400 mg, Tmax Median, Part 1 Cohort 3, 400 mg QD, Day 1): 5 h | AUC(0-t) (plasma, oral, 1200 mg, AUC0-6 hr Mean, Part 1 Cohort 4, 1200 mg QD, Cycle 1 Day 1): 197 ng·h/mL | AUC(0-t) (plasma, oral, 1200 mg, AUC0-6 hr Mean, Part 1 Cohort 4, 1200 mg QD, Cycle 1 Day 14): 1130 ng·h/mL
